Data published in ChEMBL document CHEMBL3399990, “Synthesis of mycothiol conjugate analogues and evaluation of their antimycobacterial activity” (Bioorg Med Chem Lett, 2015).
In brackets after ≈: the same amount, converted by molar mass.

Assays:
[1] = test system: Mycolicibacterium smegmatis; experiment: Bacteriostatic activity against Mycobacterium smegmatis after 96 hrs by resazurin fluorescence assay; assay type: functional
[2] = Cytotoxicity against human HL60 cells after 48 hrs by MTT assay; assay type: functional, cell-based; conditions: HL-60, 48 h
1A9 = experiment: Cytotoxicity against human 1A9 cells after 48 hrs by MTT assay; assay type: functional, cell-based; conditions: 1A9, 48 h

CC(C)(C)OC(=O)N[C@@H](CSC(Cl)=C(Cl)Cl)C(=O)N[C@@H]1[C@@H](O)[C@H](O)[C@@H](CO)O[C@@H]1SC1CCCCC1
MIC [1]: > 1000 µM
IC50 [2]: 60 µM
IC50 (1A9): 103 µM

N[C@@H](CSC(Cl)=C(Cl)Cl)C(=O)N[C@@H]1[C@@H](O)[C@H](O)[C@@H](CO)O[C@H]1SC1CCCCC1
MIC [1]: 250 µM (≈ 127 µg/mL)
IC50 [2]: 112 µM
IC50 (1A9): 121 µM

CC(C)(C)OC(=O)N[C@@H](CSC(Cl)=C(Cl)Cl)C(=O)N[C@@H]1[C@@H](O)[C@H](O)[C@@H](CO)O[C@H]1SC1CCCCC1
MIC [1]: > 1000 µM
IC50 [2]: 16.5 µM
IC50 (1A9): 33 µM

N[C@@H](CSC(Cl)=C(Cl)Cl)C(=O)N[C@@H]1[C@@H](O)[C@H](O)[C@@H](CO)O[C@@H]1SC1CCCCC1
MIC [1]: 250 µM (≈ 127 µg/mL)
IC50 [2]: 76 µM
IC50 (1A9): 79 µM
